Measurements published in patent publication US10214508B2, “Nitrogen-containing heterocyclic compound” (Takeda Pharmaceutical Company Limited, priority 2014, dated 2019).
Where a name gives a salt, the structure may show the parent alone.

Target: T1, human M1 receptor (hCHRM1) (Homo sapiens, UniProt P11229)
T1 construct: expressed in transfected cells
T1 sequence (P11229 1-460): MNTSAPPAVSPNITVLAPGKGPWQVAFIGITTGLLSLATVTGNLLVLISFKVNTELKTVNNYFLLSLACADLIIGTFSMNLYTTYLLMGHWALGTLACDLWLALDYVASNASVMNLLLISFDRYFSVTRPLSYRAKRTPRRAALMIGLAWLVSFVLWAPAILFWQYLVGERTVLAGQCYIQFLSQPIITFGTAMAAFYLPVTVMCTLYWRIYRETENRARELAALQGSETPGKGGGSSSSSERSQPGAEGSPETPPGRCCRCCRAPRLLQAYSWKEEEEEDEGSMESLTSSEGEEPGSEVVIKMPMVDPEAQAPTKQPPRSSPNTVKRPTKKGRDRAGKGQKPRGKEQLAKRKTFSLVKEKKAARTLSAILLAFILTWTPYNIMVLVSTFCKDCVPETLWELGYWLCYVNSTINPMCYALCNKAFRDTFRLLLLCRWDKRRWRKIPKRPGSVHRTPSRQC
Assay: Measurement of M1 receptor positive allosteric modulator (M1PAM) activity, calcium fluorescence (FLIPRtetra)
Type: cell-based
Conditions: 10 μM test compound with acetylcholine at EC20 (final 0.6-0.8 nM); 100% = acetylcholine 1 μM, 0% = DMSO; CHO-K1 cells expressing hCHRM1
Protocol: Measurement of M1 Receptor Positive Allosteric Modulator (M1PAM) Activity
The activity of a test compound in the presence of acetylcholine at EC20 concentration (final concentration 0.6-0.8 nM), which affords an action corresponding to about 20% of the maximum activity, was measured as PAM activity. The method is as follows. CHO-K1 cells stably expressing a human M1 receptor (hCHRM1) were plated on a 384-well black clear bottom plate (BD Falcon) at 5,000 cells/well, and cultured in an incubator at 37° C., 5% CO2 for 1 day. The medium in the cell plate was removed, and assay buffer A containing calcium indicator (Recording medium (DOJINDO LABORATORIES), 0.1% BSA (Wako Pure Chemical Industries, Ltd.), 2.5 μg/mL Fluo-4 AM (DOJINDO LABORATORIES), 0.08% Pluronic F127 (DOJINDO LABORATORIES), 1.25 mM probenecid (DOJINDO LABORATORIES)) was added at 30 μL/well. The cells were left standing in the incubator at 37° C., 5% CO2 for 30 min, and further left standing at room temperature for 30 min. A test compound prepared by diluting with assay buffer B (HBSS (Invitrogen), 20 mM HEPES (Invitrogen), 0.1% BSA) containing 2.4-3.2 nM acetylcholine was added at 10 μL/well, and the fluorescence was measured by FLIPRtetra (Molecular Devices) for 1 min every for 1 second. With the definition that the amount of change in the fluorescence on addition of acetylcholine (final concentration 1 μM) is 100% and that on addition of DMSO instead of a test compound is 0%, the activity (%) of the test compound was calculated, and the inflection point in the concentration-dependent curve of the test compound was calculated as IP values.

| SMILES | activity (%) at 10 μM [%] |
| --- | --- |
| Cc1cnc(C(=O)N[C@H]2CCCC[C@@H]2O)cc1Cc1ccc(-n2cccn2)cc1 (relative stereo) [Example 4, N-(trans-2-hydroxycyclohexyl)-5-methyl-4-(4-(1H-pyrazol-1-yl)benzyl)pyridine-2-carboxamide] | 98 |
| COc1cnc(C(=O)N[C@H]2CCCC[C@@H]2O)cc1Cc1ccc(-c2cnn(C)c2)nc1 (relative stereo) [Example 58, N-(trans-2-hydroxycyclohexyl)-5-methoxy-4-((6-(1-methyl-1H-pyrazol-4-yl)pyridin-3-yl)methyl)pyridine-2-carboxamide] | 89 |
| Cc1cnc(C(=O)N[C@H]2COCC[C@@H]2O)cc1Cc1ccc(-c2ccn(C)n2)cc1 [Example 2, 1,5-anhydro-2,4-dideoxy-2-(((5-methyl-4-(4-(1-methyl-1H-pyrazol-3-yl)benzyl)pyridin-2-yl)carbonyl)amino)-L-threo-pentitol] | 100 |
| Cc1cnc(C(=O)N[C@H]2CCC[C@@H]2O)cc1Cc1ccc(-n2cccn2)cc1 [Example 5, N-((1S,2S)-2-hydroxycyclopentyl)-5-methyl-4-(4-(1H-pyrazol-1-yl)benzyl)pyridine-2-carboxamide] | 91 |
| O=C(N[C@H]1CCCC[C@@H]1O)c1cc(Cc2ccc(-n3cccn3)cc2)c(Cl)cn1 [Example 6, 5-chloro-N-((1S,2S)-2-hydroxycyclohexyl)-4-(4-(1H-pyrazol-1-yl)benzyl)pyridine-2-carboxamide] | 108 |
| O=C(N[C@H]1CCC[C@@H]1O)c1cc(Cc2ccc(-n3cccn3)cc2)c(Cl)cn1 [Example 7, 5-chloro-N-((1S,2S)-2-hydroxycyclopentyl)-4-(4-(1H-pyrazol-1-yl)benzyl)pyridine-2-carboxamide] | 104 |
| O=C(N[C@H]1COCC[C@@H]1O)c1cc(Cc2ccc(-n3cccn3)cc2)c(Cl)cn1 [Example 8, 1,5-anhydro-2-(((5-chloro-4-(4-(1H-pyrazol-1-yl)benzyl)pyridin-2-yl)carbonyl)amino)-2,4-dideoxy-L-threo-pentitol Hydrochloride] | 92 |
| Cc1cnc(C(=O)N[C@H]2CCCC[C@@H]2O)cc1Cc1ccc(-c2ccn(C)n2)cc1 [Example 9, N-((1S,2S)-2-hydroxycyclohexyl)-5-methyl-4-(4-(1-methyl-1H-pyrazol-3-yl)benzyl)pyridine-2-carboxamide] | 91 |
| Cc1cnc(C(=O)N[C@H]2CCCC[C@@H]2O)cc1Cc1ccc(-c2ccn(C)n2)cc1F [Example 10, 4-(2-fluoro-4-(1-methyl-1H-pyrazol-3-yl)benzyl)-N-((1S,2S)-2-hydroxycyclohexyl)-5-methylpyridine-2-carboxamide] | 89 |
| Cc1cnc(C(=O)N[C@H]2CCC[C@@H]2O)cc1Cc1ccc(-c2ccn(C)n2)cc1F [Example 11, 4-(2-fluoro-4-(1-methyl-1H-pyrazol-3-yl)benzyl)-N-((1S,2S)-2-hydroxycyclopentyl)-5-methylpyridine-2-carboxamide] | 98 |
| Cc1cnc(C(=O)N[C@H]2CCCC[C@@H]2O)cc1Cc1ccc(-n2cccn2)cc1F [Example 12, 4-(2-fluoro-4-(1H-pyrazol-1-yl)benzyl)-N-((1S,2S)-2-hydroxycyclohexyl)-5-methylpyridine-2-carboxamide] | 113 |
| Cc1cnc(C(=O)N[C@H]2CCC[C@@H]2O)cc1Cc1ccc(-n2cccn2)cc1F [Example 13, 4-(2-fluoro-4-(1H-pyrazol-1-yl)benzyl)-N-((1S,2S)-2-hydroxycyclopentyl)-5-methylpyridine-2-carboxamide] | 92 |
| Cc1cnc(C(=O)N[C@H]2CCC[C@@H]2O)cc1Cc1ccc(-c2cn(C)nc2C)cc1 [Example 14, 4-(4-(1,3-dimethyl-1H-pyrazol-4-yl)benzyl)-N-((1S,2S)-2-hydroxycyclopentyl)-5-methylpyridine-2-carboxamide Dihydrochloride] | 100 |
| Cc1cnc(C(=O)N[C@H]2CCCC[C@@H]2O)cc1Cc1ccc(-c2cn(C)nc2C)cc1 [Example 15, 4-(4-(1,3-dimethyl-1H-pyrazol-4-yl)benzyl)-N-((1S,2S)-2-hydroxycyclohexyl)-5-methylpyridine-2-carboxamide] | 107 |
| Cc1cnc(C(=O)N[C@H]2COCC[C@@H]2O)cc1Cc1ccc(-c2ccn(C)n2)cc1F [Example 16, 1,5-anhydro-2,4-dideoxy-2-(((4-(2-fluoro-4-(1-methyl-1H-pyrazol-3-yl)benzyl)-5-methylpyridin-2-yl)carbonyl)amino)-L-threo-pentitol] | 91 |
| Cc1cnc(C(=O)N[C@H]2COCC[C@@H]2O)cc1Cc1ccc(-n2cccn2)cc1F [Example 17, 1,5-anhydro-2,4-dideoxy-2-(((4-(2-fluoro-4-(1H-pyrazol-1-yl)benzyl)-5-methylpyridin-2-yl)carbonyl)amino)-L-threo-pentitol] | 98 |
| COC1CCCCC1NC(=O)c1cc(Cc2ccc(-c3ccn(C)n3)cc2)c(C)cn1 (stereo not shown) [Example 18, N-(2-methoxycyclohexyl)-5-methyl-4-(4-(1-methyl-1H-pyrazol-3-yl)benzyl)pyridine-2-carboxamide] | 105 |
| COc1ccc(Cc2cc(C(=O)N[C@H]3CCCC[C@@H]3O)ncc2C)cc1 [Example 19, N-((1S,2S)-2-hydroxycyclohexyl)-4-(4-methoxybenzyl)-5-methylpyridine-2-carboxamide] | 104 |
| Cc1cnc(C(=O)NC2(CO)CCCC2)cc1Cc1ccc(-c2ccn(C)n2)cc1 [Example 20, N-(1-(hydroxymethyl)cyclopentyl)-5-methyl-4-(4-(1-methyl-1H-pyrazol-3-yl)benzyl)pyridine-2-carboxamide] | 75 |
| Cc1cnc(C(=O)NC2CCOCC2O)cc1Cc1ccc(-c2ccn(C)n2)cc1 (stereo not shown) [Example 21, 1,5-anhydro-2,3-dideoxy-3-(((5-methyl-4-(4-(1-methyl-1H-pyrazol-3-yl)benzyl)pyridin-2-yl)carbonyl)amino)pentitol] | 89 |
| Cc1cnc(C(=O)NC2CC2(F)F)cc1Cc1ccc(-c2ccn(C)n2)cc1 (stereo not shown) [Example 22, N-(2,2-difluorocyclopropyl)-5-methyl-4-(4-(1-methyl-1H-pyrazol-3-yl)benzyl)pyridine-2-carboxamide] | 77 |
| Cc1cnc(C(=O)NC2(CO)CC2)cc1Cc1ccc(-c2ccn(C)n2)cc1 [Example 23, N-(1-(hydroxymethyl)cyclopropyl)-5-methyl-4-(4-(1-methyl-1H-pyrazol-3-yl)benzyl)pyridine-2-carboxamide] | 84 |
| Cc1cnc(C(=O)N[C@H]2c3ccccc3C[C@H]2O)cc1Cc1ccc(-c2ccn(C)n2)cc1 [Example 24, N-((1S,2R)-2-hydroxy-2,3-dihydro-1H-inden-1-yl)-5-methyl-4-(4-(1-methyl-1H-pyrazol-3-yl)benzyl)pyridine-2-carboxamide] | 87 |
| Cc1cnc(C(=O)NC2CC(F)(F)CCC2O)cc1Cc1ccc(-c2ccn(C)n2)cc1 (stereo not shown) [Example 25, N-(5,5-difluoro-2-hydroxycyclohexyl)-5-methyl-4-(4-(1-methyl-1H-pyrazol-3-yl)benzyl)pyridine-2-carboxamide] | 85 |
| Cc1cnc(C(=O)NC2COC2)cc1Cc1ccc(-c2ccn(C)n2)cc1 [Example 26, 5-methyl-4-(4-(1-methyl-1H-pyrazol-3-yl)benzyl)-N-(oxetan-3-yl)pyridine-2-carboxamide] | 59 |
| Cc1cnc(C(=O)NC2CCOCC2)cc1Cc1ccc(-c2ccn(C)n2)cc1 [Example 27, 5-methyl-4-(4-(1-methyl-1H-pyrazol-3-yl)benzyl)-N-(tetrahydro-2H-pyran-4-yl)pyridine-2-carboxamide] | 88 |
| Cc1cnc(C(=O)NC2CC2)cc1Cc1ccc(-c2ccn(C)n2)cc1 [Example 28, N-cyclopropyl-5-methyl-4-(4-(1-methyl-1H-pyrazol-3-yl)benzyl)pyridine-2-carboxamide] | 73 |
| Cc1cnc(C(=O)NC2CCC2)cc1Cc1ccc(-c2ccn(C)n2)cc1 [Example 29, N-cyclobutyl-5-methyl-4-(4-(1-methyl-1H-pyrazol-3-yl)benzyl)pyridine-2-carboxamide] | 93 |
